Source: article PMC9411704, “Assessment of the Carcinogenic Potential of Pretomanid in Transgenic Tg.rasH2 Mice” (International Journal of Toxicology, 2022)
Where two headings read alike, the source gives them in different places.

What was measured:
[1] = Toxicokinetic assessment in wild-type CByB6F1 mice (Day 14); format: in vivo
Experimental: TK animals were included for the vehicle control (n = 4 sex) and pretomanid-treated groups (n = 10 sex/group). The TK cohort animals were dosed by oral gavage once daily for 14 consecutive days.
Toxicokinetic blood samples (300 μL for males and 250 μL for females) were collected in K3EDTA tubes after 14 doses from the TK cohort via retro-orbital bleeding under 70% CO2/30% O2 anesthesia. On Day 14, control mice were bled once 2 hours after dosing. On Day 14 and 15, Pretomanid-treated mice were bled predose, 0.5, 1, 3, 6, and 24 hours post dose. TK animals were euthanized after their final blood collection.
Collected blood was stored on wet ice until the samples were processed to plasma. Blood samples were centrifuged at 4±2°C and 8000 g for 5 minutes. Plasma was snap frozen in liquid nitrogen and stored in a deep freezer (≤−60°C) within 60 minutes of bleeding the TK animals.
Pretomanid and the M50 metabolite were quantified in mouse plasma by liquid chromatography-tandem mass spectrometry (LC-MS/MS) after protein precipitation. Aliquots of 25 µL of plasma were spiked with internal standards (PA-824-d5 or morphine) and proteins were precipitated in 1% formic acid in acetonitrile. A partial supernatant from each sample was transferred to a clean plate and diluted in acetonitrile/water (40:60) for pretomanid and deionized water for M50. Supernatant was analyzed for pretomanid or M50 using validated LC-MS/MS methods with a linear range of 20 to 10,000 ng/mL for pretomanid and 10 to 5,000 ng/mL for M50 (methods validated at Alliance Pharma, Malvern PA).
Sample collection time and plasma concentration data were analyzed to derive TK parameters by standard model independent methods based on the mean plasma concentration-time data for each dose group. The TK analyses of the plasma concentration profiles were performed using non-compartmental analysis in Phoenix WinNonlin Professional 7.0 (Certara, L.P., St. Louis, MO, USA). Concentration values below the lower limit of quantitation were treated as zeros for analysis purposes.

[2] = tested on: Salmonella typhimurium TA98, TA100, TA1535, TA1537 and Escherichia coli WP2uvrA; experiment: Bacterial reverse mutation (Ames) assay, overall over five tester strains; format: cell-based; conditions: up to 5000 μg/plate
Experimental: (§1) Pretomanid and metabolite M50 were evaluated over a range of concentrations, with and without an added metabolic activation system, in five tester strains: Salmonella typhimurium histidine auxotrophs TA98, TA100, TA1535, and TA1537 [9] and the Escherichia coli tryptophan auxotroph WP2uvrA. S. typhimurium strains were received from Dr. Bruce Ames, Department of Biochemistry, University of California (Berkeley, CA). The E. coli strain was received from The National Collection of Industrial Bacteria, Torrey Research Station, Aberdeen, Scotland (United Kingdom). The metabolic activation system was a liver homogenate (S9) mix. The S9 component was prepared from male Sprague-Dawley rats that had been injected (intraperitoneally) with Aroclor^TM 1254 at 500 mg/kg, 5 days before sacrifice. The S9 mix was prepared immediately before use and contained 10% S9, 5 mM glucose-6-phosphate, 4 mM β-nicotinamide adenine dinucleotide phosphate, 8 mM MgCl2 and 33 mM KCl in a 100 mM phosphate buffer at pH 7.4. Pretomanid was tested at 0.05 to 5000 μg/plate. Metabolite M50 was tested at 78 to 2500 μg/plate. A negative (solvent) control culture and appropriate positive control cultures were included in each assay.
(§2) Bacteria were exposed to test materials by the plate incorporation method originally described by Ames et al and updated by Maron and Ames. Bottom agar was Vogel-Bonner minimal medium E [12] with 1.5% (w/v) agar, and the top Agar was 0.7% (w/v) agar and 0.5% (w/v) NaCl. After incubation, cultures were evaluated using a dissecting microscope for precipitation or cytotoxicity, and revertant colonies were counted. The mean numbers of revertant colonies in various cultures were compared to reach conclusions about assay validity and mutagenic potential. For the test article to be evaluated positive, it must cause a dose-related increase in the mean revertants per plate of at least one tester strain with a minimum of two increasing concentrations of test article.

[3] = tested on: Salmonella typhimurium TA100; experiment: Bacterial reverse mutation (Ames) assay, plate incorporation; format: cell-based
Experimental: as §1, §2

[4] = tested on: Salmonella typhimurium TA98; experiment: as above; format: cell-based
Experimental: as §1, §2

[5] = tested on: Salmonella typhimurium TA1535; experiment: as above; format: cell-based
Experimental: as §1, §2

[6] = tested on: Salmonella typhimurium TA1537; experiment: as above; format: cell-based
Experimental: as §1, §2

[7] = tested on: Escherichia coli WP2uvrA; experiment: as above
Experimental: as §1, §2

## O=[N+]([O-])c1cn2c(n1)OC[C@@H](OCc1ccc(OC(F)(F)F)cc1)C2 [Pretomanid, (6S)-2-nitro-6-{[4-(trifluoromethoxy)benzyl]oxy}-6,7-dihydro-5H-imidazo[2,1-b][1,3]oxazine]
[1]; CByB6F1 (wild-type), mouse, female, pretomanid 10 mg/kg/day oral, Day 14, plasma, read-out: Pretomanid AUC0-24
  AUC(0-t): 24900 ng·h/mL
[1]; CByB6F1 (wild-type), mouse, female, pretomanid 30 mg/kg/day oral, Day 14, plasma
  Cmax: 6900 ng/mL
[1]; CByB6F1 (wild-type), mouse, female, pretomanid 30 mg/kg/day oral, Day 14, plasma, read-out: Pretomanid AUC0-24
  AUC(0-t): 87500 ng·h/mL
[1]; CByB6F1 (wild-type), mouse, female, pretomanid 80 mg/kg/day oral, Day 14, plasma
  Cmax: 16200 ng/mL
[1]; CByB6F1 (wild-type), mouse, female, pretomanid 80 mg/kg/day oral, Day 14, plasma, read-out: Pretomanid AUC0-24
  AUC(0-t): 186000 ng·h/mL
[1]; Day 14, all dose levels, both sexes
  Exposure to pretomanid relative to exposure to the M50 metabolite: more than 10 times
[1]; both sexes, CByB6F1 (wild-type), mouse, plasma, oral, high dose (40 male, 80 female mg/kg/day), read-out: Gender averaged mouse AUC0-24 of pretomanid
  AUC(0-t): 149000 ng·h/mL
[1]; wild-type CByB6F1, mouse, female, pretomanid 10 mg/kg/day oral, Day 14, plasma
  Cmax: 2900 ng/mL
[1]; wild-type CByB6F1, mouse, male, pretomanid 5 mg/kg/day oral, Day 14, plasma
  Cmax: 1800 ng/mL
[1]; wild-type CByB6F1, mouse, male, pretomanid 5 mg/kg/day oral, Day 14, plasma, read-out: Pretomanid AUC0-24
  AUC(0-t): 13700 ng·h/mL
[1]; wild-type CByB6F1, mouse, male, pretomanid 15 mg/kg/day oral, Day 14, plasma
  Cmax: 4900 ng/mL
[1]; wild-type CByB6F1, mouse, male, pretomanid 15 mg/kg/day oral, Day 14, plasma, read-out: Pretomanid AUC0-24
  AUC(0-t): 50800 ng·h/mL
[1]; wild-type CByB6F1, mouse, male, pretomanid 40 mg/kg/day oral, Day 14, plasma
  Cmax: 10400 ng/mL
[1]; wild-type CByB6F1, mouse, male, pretomanid 40 mg/kg/day oral, Day 14, plasma, read-out: Pretomanid AUC0-24
  AUC(0-t): 112000 ng·h/mL
[2]; any tester strain under any conditions
  Change in number of revertant colonies: did not cause a significant increase
[2]
  Cytotoxicity in the Ames assay: no appreciable cytotoxicity
[2]; with and without S9
  Mutagenic potential: negative
[3]; TA100 +S9, 100 μg/plate
  Mean Number of Revertants/Plate: 137 Revertants/Plate
[3]; TA100 +S9, 333 μg/plate
  Mean Number of Revertants/Plate: 179 Revertants/Plate
[3]; TA100 +S9, 1000 μg/plate
  Mean Number of Revertants/Plate: 173 Revertants/Plate
[3]; TA100 +S9, 3333 μg/plate
  Mean Number of Revertants/Plate: 166 Revertants/Plate
[3]; TA100 +S9, 5000 μg/plate
  Mean Number of Revertants/Plate: 179 Revertants/Plate
[3]; TA100 −S9, 100 μg/plate
  Mean Number of Revertants/Plate: 119 Revertants/Plate
[3]; TA100 −S9, 333 μg/plate
  Mean Number of Revertants/Plate: 107 Revertants/Plate
[3]; TA100 −S9, 1000 μg/plate
  Mean Number of Revertants/Plate: 115 Revertants/Plate
[3]; TA100 −S9, 3333 μg/plate
  Mean Number of Revertants/Plate: 99 Revertants/Plate
[3]; TA100 −S9, 5000 μg/plate
  Mean Number of Revertants/Plate: 106 Revertants/Plate
[4]; TA98 +S9, 100 μg/plate
  Mean Number of Revertants/Plate: 22 Revertants/Plate
[4]; TA98 +S9, 333 μg/plate
  Mean Number of Revertants/Plate: 26 Revertants/Plate
[4]; TA98 +S9, 1000 μg/plate
  Mean Number of Revertants/Plate: 23 Revertants/Plate
[4]; TA98 +S9, 3333 μg/plate
  Mean Number of Revertants/Plate: 16 Revertants/Plate
[4]; TA98 +S9, 5000 μg/plate
  Mean Number of Revertants/Plate: 22 Revertants/Plate
[4]; TA98 −S9, 100 μg/plate
  Mean Number of Revertants/Plate: 25 Revertants/Plate
[4]; TA98 −S9, 333 μg/plate
  Mean Number of Revertants/Plate: 12 Revertants/Plate
[4]; TA98 −S9, 1000 μg/plate
  Mean Number of Revertants/Plate: 18 Revertants/Plate
[4]; TA98 −S9, 3333 μg/plate
  Mean Number of Revertants/Plate: 17 Revertants/Plate
[4]; TA98 −S9, 5000 μg/plate
  Mean Number of Revertants/Plate: 15 Revertants/Plate
[5]; TA1535 +S9, 100 μg/plate
  Mean Number of Revertants/Plate: 12 Revertants/Plate
[5]; TA1535 +S9, 333 μg/plate
  Mean Number of Revertants/Plate: 13 Revertants/Plate
[5]; TA1535 +S9, 1000 μg/plate
  Mean Number of Revertants/Plate: 10 Revertants/Plate
[5]; TA1535 +S9, 3333 μg/plate
  Mean Number of Revertants/Plate: 11 Revertants/Plate
[5]; TA1535 +S9, 5000 μg/plate
  Mean Number of Revertants/Plate: 14 Revertants/Plate
[5]; TA1535 −S9, 100 μg/plate
  Mean Number of Revertants/Plate: 9 Revertants/Plate
[5]; TA1535 −S9, 333 μg/plate
  Mean Number of Revertants/Plate: 10 Revertants/Plate
[5]; TA1535 −S9, 1000 μg/plate
  Mean Number of Revertants/Plate: 10 Revertants/Plate
[5]; TA1535 −S9, 3333 μg/plate
  Mean Number of Revertants/Plate: 8 Revertants/Plate
[5]; TA1535 −S9, 5000 μg/plate
  Mean Number of Revertants/Plate: 7 Revertants/Plate
[6]; TA1537 +S9, 100 μg/plate
  Mean Number of Revertants/Plate: 9 Revertants/Plate
[6]; TA1537 +S9, 333 μg/plate
  Mean Number of Revertants/Plate: 6 Revertants/Plate
[6]; TA1537 +S9, 1000 μg/plate
  Mean Number of Revertants/Plate: 5 Revertants/Plate
[6]; TA1537 +S9, 3333 μg/plate
  Mean Number of Revertants/Plate: 5 Revertants/Plate
[6]; TA1537 +S9, 5000 μg/plate
  Mean Number of Revertants/Plate: 4 Revertants/Plate
[6]; TA1537 −S9, 100 μg/plate
  Mean Number of Revertants/Plate: 5 Revertants/Plate
[6]; TA1537 −S9, 333 μg/plate
  Mean Number of Revertants/Plate: 5 Revertants/Plate
[6]; TA1537 −S9, 1000 μg/plate
  Mean Number of Revertants/Plate: 10 Revertants/Plate
[6]; TA1537 −S9, 3333 μg/plate
  Mean Number of Revertants/Plate: 5 Revertants/Plate
[6]; TA1537 −S9, 5000 μg/plate
  Mean Number of Revertants/Plate: 5 Revertants/Plate
[7]; WP2uvrA +S9, 100 μg/plate
  Mean Number of Revertants/Plate: 16 Revertants/Plate
[7]; WP2uvrA +S9, 333 μg/plate
  Mean Number of Revertants/Plate: 17 Revertants/Plate
[7]; WP2uvrA +S9, 1000 μg/plate
  Mean Number of Revertants/Plate: 15 Revertants/Plate
[7]; WP2uvrA +S9, 3333 μg/plate
  Mean Number of Revertants/Plate: 10 Revertants/Plate
[7]; WP2uvrA +S9, 5000 μg/plate
  Mean Number of Revertants/Plate: 14 Revertants/Plate
[7]; WP2uvrA −S9, 100 μg/plate
  Mean Number of Revertants/Plate: 23 Revertants/Plate
[7]; WP2uvrA −S9, 333 μg/plate
  Mean Number of Revertants/Plate: 21 Revertants/Plate
[7]; WP2uvrA −S9, 1000 μg/plate
  Mean Number of Revertants/Plate: 17 Revertants/Plate
[7]; WP2uvrA −S9, 3333 μg/plate
  Mean Number of Revertants/Plate: 11 Revertants/Plate
[7]; WP2uvrA −S9, 5000 μg/plate
  Mean Number of Revertants/Plate: 16 Revertants/Plate
